Measured values from US8222425B2, “Organic compounds and their uses” (Novartis AG, priority 2007, dated 2012).
≈ marks a conversion by molar mass, not a printed value. Like-named read-outs stand apart in the source and are kept apart here.

Columns and labels:
Thermodynamic solubility = assay type: physicochemical; conditions: thermodynamic from solid
Experimental: Thermodynamic solubility for the compounds of the invention listed in Table C is measured by a published literature procedure, e.g., Liping Zhou, et al., J. Pharm. Sci. (2007) 96(11): 3052-3071.
The DMSO stocks of test compounds previously dissolved in 25 μL of DMSO (˜10 mM) in mini-prep vial (MPV: Whatman, with PVDF filter and 0.45 μm pore size) chamber were evaporated via a GeneVac HT-4X evaporator for approximately 1 hour, at the guard temperature of 30° C. An aliquot of 250 μL buffer solution (pH 1.0 or 6.8) was added into each MPV chamber containing powders reconstituted from DMSO stock solutions. The MPV filter plungers were pushed down into the chamber until the membrane of the filter plunger slightly touched the surface of the buffer to promote equilibrium between the two compartments and to minimize the adsorption due to non-specific binding of samples during the subsequent 24-hr incubation (at 600 RPM at room temperature). Immediately after the 24-hr incubation, the plungers were further pushed down to the bottom of the chambers. More solution was pushed through the membrane and entered the plunger compartment. The filter/chamber assemblies were then put on a shaker for another 30 minutes at 600 RPM. Afterwards, filtrates were further diluted (1:10) with 50/50 acetonitrile/water solvent followed by a thorough mixing process. Both plates with diluted and undiluted filtrates were analyzed by HPLC and quantified against the four-point standard dilution curve of the same test compound (5 μM, 35 μM, 65 μM and 100 μM, respectively). In the current study, solubility reflects the average of triplicate samples tested at each pH.

[1] = Pharmacokinetic profile in rats; set-up: species or system Sprague Dawley rats; conditions: rat, in vivo; for Cmax: Sprague Dawley; for Cmax / AUC: po, 10 mg/kg
Experimental: Compounds listed in Table D are administered as a solution orally via gavage at 10 mg/kg to Sprague Dawley rats at a dosing volume of 10 ml/kg. Samples are collected via a surgically implanted cannula at selected timepoints deemed necessary to characterize pharmacokinetic parameters. Blood samples are placed on wet ice and spun down to plasma within 5 minutes of timepoint collection. Plasma samples are frozen until bioanalytical analysis. Compounds listed in Table D are administered intravenously into a surgically implanted cannula as a solution at 1 mg/kg to Sprague Dawley rats at a dosing volume of 1 ml/kg. Samples are collected via another surgically implanted cannula at selected timepoints deemed necessary to characterize pharmacokinetic parameters. Blood samples are placed on wet ice and spun down to plasma within 5 minutes of timepoint collection. Plasma samples are frozen until bioanalytical analysis.

HCV = conditions: ribavirin alone; cited from earlier work

SMILES	solubility at 24 h (Thermodynamic solubility; pH 1, simulated gastric fluid) [µM]	solubility at 24 h (Thermodynamic solubility; pH 6.8, aqueous buffer) [µM]	Cmax [1] [nM]	AUC [1] [nM·h/mg/kg]	other results
CCC[C@H](NC(=O)[C@@H]1C[C@@]2(CN1C(=O)[C@@H](NC(=O)[C@@H](NC(=O)[C@@H]1CCCCN1C(C)C)C(C)(C)C)C(C)(C)C)C(C)(C)C21CCC1)C(=O)C(=O)NC1CC1 [Compound A-44]	690 (≈ 521 µg/mL)	64 (≈ 48.3 µg/mL)	1110	523	Bioavailability [1]: 43 % F
CCC[C@H](NC(=O)[C@@H]1C[C@@]2(CN1C(=O)[C@@H](NC(=O)[C@@H](NC(=O)[C@H]1CCCCN1C(C)C)C1CCCCC1)C(C)(C)C)C(C)(C)C21CCC1)C(=O)C(=O)NC1CC1 [Compound A-5]	480 (≈ 375 µg/mL)	44 (≈ 34.4 µg/mL)			
CCC[C@H](NC(=O)[C@@H]1C[C@@]2(CN1C(=O)[C@@H](NC(=O)[C@@H](NC(=O)[C@@H]1CCCCN1C(C)C)C(C)(C)C)C(C)(C)C)C(C)(C)C21CCC1)C(=O)C(=O)NC1CCC1 [Compound A-82]	830 (≈ 638 µg/mL)	< 5			
CCC[C@H](NC(=O)[C@@H]1C[C@@]2(CN1C(=O)[C@@H](NC(=O)[C@@H](NC(=O)[C@@H]1CCCN(C)C1)C(C)(C)C)C1CCCCC1)C(C)(C)C21CCC1)C(=O)C(=O)NC1CC1 [Compound A-66]	840 (≈ 633 µg/mL)	600 (≈ 452 µg/mL)			
CCC[C@H](NC(=O)[C@@H]1C[C@@]2(CN1C(=O)[C@@H](NC(=O)[C@@H](NC(=O)[C@@H]1CCCCN1C(C)C)C1CCCCC1)C(C)(C)C)C(C)(C)C21CCC1)C(=O)C(=O)NC1CC1 [Compound A-6]	930 (≈ 726 µg/mL)	< 5			
CCC[C@H](NC(=O)[C@@H]1C[C@@]2(CN1C(=O)[C@@H](NC(=O)[C@@H](NC(=O)[C@H]1CCCCN1CC)C(C)(C)C)C(C)(C)C)C(C)(C)C21CCC1)C(=O)C(=O)NC1CC1 [Compound A-72]	840 (≈ 622 µg/mL)	340 (≈ 252 µg/mL)			
CCC[C@H](NC(=O)C1C[C@@]2(CN1C(=O)[C@@H](NC(=O)[C@@H](NC(=O)[C@H]1CCCN1CC)C1CCCCC1)C(C)(C)C)C(C)(C)C21CCC1)C(=O)C(=O)NC1CC1 (stereo partly shown) [Compound A-11]	870 (≈ 655 µg/mL)	92 (≈ 69.3 µg/mL)			
CCC[C@H](NC(=O)[C@@H]1C[C@@]2(CN1C(=O)[C@@H](NC(=O)[C@@H](NC(=O)[C@@H]1CCCN(C)C1)C(C)(C)C)C(C)(C)C)C(C)(C)C21CCC1)C(=O)C(=O)NC1CC1 [Compound A-58]	960 (≈ 698 µg/mL)	930 (≈ 676 µg/mL)			
CCC[C@H](NC(=O)[C@@H]1C[C@@]2(CN1C(=O)[C@@H](NC(=O)[C@@H](NC(=O)[C@@H]1CN(C)CCN1C(C)C)C1CCCCC1)C(C)(C)C)C(C)(C)C21CCC1)C(=O)C(=O)NC1CC1 [Compound A-43]	640 (≈ 510 µg/mL)	290 (≈ 231 µg/mL)			
C=C[C@@H]1C[C@]1(NC(=O)[C@@H]1C[C@@]2(CN1C(=O)[C@@H](NC(=O)[C@@H](NC(=O)[C@@H]1CCCCN1C(C)C)C(C)(C)C)C(C)(C)C)C(C)(C)C21CCC1)C(=O)NS(=O)(=O)C1CC1 [Compound A-7]					solubility at 24 h (Thermodynamic solubility; aqueous buffer, thermodynamic solubility, buffer pH 6.8, 24-hr incubation at room temperature, read-out: Solubility (pH 6.8)): 840 µM (≈ 673 µg/mL); solubility at 24 h (Thermodynamic solubility; simulated gastric fluid, thermodynamic solubility, buffer pH 1.0, 24-hr incubation at room temperature, read-out: Solubility (pH 1)): 900 µM (≈ 721 µg/mL)
CCC[C@H](NC(=O)[C@@H]1C[C@@]2(CN1C(=O)[C@@H](NC(=O)[C@@H](NC(=O)[C@@H]1CCN1C(C)C)C1CCCCC1)C(C)(C)C)C(C)(C)C21CCC1)C(=O)C(=O)NC1CC1 [Compound A-62]	930 (≈ 700 µg/mL)	< 5	796	241	Bioavailability [1]: 36 % F
CCC[C@H](NC(=O)[C@@H]1C[C@@]2(CN1C(=O)[C@@H](NC(=O)[C@@H](NC(=O)[C@@H]1CCCN(C)C1)C1CCCCC1)C(C)(C)C)C(C)(C)C21CCC1)C(=O)C(=O)NC1CC1 [Compound A-50]	830 (≈ 625 µg/mL)	240 (≈ 181 µg/mL)			
CCC[C@H](NC(=O)[C@@H]1C[C@@]2(CN1C(=O)[C@@H](NC(=O)[C@@H](NC(=O)[C@@H]1CCCCN1C(C)C)C1CCCCC1)C(C)(C)C)C(C)(C)C21CCC1)C(=O)C(=O)NC(C)C [Compound A-54]	790 (≈ 619 µg/mL)	28 (≈ 21.9 µg/mL)	1430	416	Bioavailability [1]: 28 % F
CCC[C@H](NC(=O)[C@@H]1C[C@@]2(CN1C(=O)[C@@H](NC(=O)[C@@H](NC(=O)[C@H]1CCCN(CC)C1)C(C)(C)C)C(C)(C)C)C(C)(C)C21CCC1)C(=O)C(=O)NC1CC1 [Compound A-59]	840 (≈ 622 µg/mL)	550 (≈ 408 µg/mL)	653	203	
CCCC(NC(=O)[C@@H]1C[C@@]2(CN1C(=O)[C@@H](NC(=O)[C@@H](NC(=O)C1CCN1C(C)(C)C)C1CCCCC1)C(C)(C)C)C(C)(C)C21CCC1)C(=O)C(=O)NC1CC1 (stereo partly shown) [Compound A-64]	710 (≈ 545 µg/mL)	< 85	904	274	
CCC[C@H](NC(=O)[C@@H]1C[C@@]2(CN1C(=O)[C@@H](NC(=O)[C@@H](NC(=O)[C@H]1CCCN(C)C1)C(C)(C)C)C1CCCCC1)C(C)(C)C21CCC1)C(=O)C(=O)NC1CC1 [Compound A-67]	740 (≈ 557 µg/mL)	690 (≈ 520 µg/mL)			
CCC[C@H](NC(=O)[C@@H]1C[C@@]2(CN1C(=O)[C@@H](NC(=O)[C@@H](NC(=O)[C@@H]1CCN1C(C)C)C(C)(C)C)C(C)(C)C)C(C)(C)C21CCC1)C(=O)C(=O)NC1CC1 [Compound A-73]	810 (≈ 589 µg/mL)	< 5			
CCC[C@H](NC(=O)[C@@H]1C[C@@]2(CN1C(=O)[C@@H](NC(=O)[C@@H](NC(=O)[C@@H]1CCCN1C)C1CCCCC1)C(C)(C)C)C(C)(C)C21CCC1)C(=O)C(=O)NC1CC1 [Compound A-33]	790 (≈ 584 µg/mL)	110 (≈ 81.3 µg/mL)			
CCC[C@H](NC(=O)[C@@H]1C[C@@]2(CN1C(=O)[C@@H](NC(=O)[C@@H](NC(=O)[C@@H]1CCCN(CC)C1)C1CCCCC1)C(C)(C)C)C(C)(C)C21CCC1)C(=O)C(=O)NC1CC1 [Compound A-15]	700 (≈ 537 µg/mL)	170 (≈ 130 µg/mL)	2030	474	Bioavailability [1]: 42 % F
NC(=O)c1ncn([C@@H]2O[C@H](CO)[C@@H](O)[C@H]2O)n1 [Ribavirin, 1-β-D-ribofuranosyl-1-1,2,4-triazole-3-caroxamide]					patients in whom serum amino transferase levels are reduced to normal (HCV): 40%
CCC[C@H](NC(=O)[C@@H]1C[C@@]2(CN1C(=O)[C@@H](NC(=O)[C@@H](NC(=O)[C@@H]1CCCCN1C(C)C)C(C)(C)C)C1CCCCC1)C(C)(C)C21CCC1)C(=O)C(=O)NC1CC1 [Compound A-45]	720 (≈ 562 µg/mL)	< 5			
CCCC(NC(=O)[C@@H]1C[C@@]2(CN1C(=O)[C@@H](NC(=O)[C@@H](NC(=O)[C@@H]1CCCN(C(C)C)C1)C1CCCCC1)C(C)(C)C)C(C)(C)C21CCC1)C(=O)C(=O)NC1CC1 (stereo in doubt) [Compound A-4]	630 (≈ 492 µg/mL)	200 (≈ 156 µg/mL)			
CCC[C@H](NC(=O)C1C[C@@]2(CN1C(=O)[C@@H](NC(=O)[C@@H](NC(=O)[C@@H]1CCCN1CC)C1CCCCC1)C(C)(C)C)C(C)(C)C21CCC1)C(=O)C(=O)NC1CC1 (stereo partly shown) [Compound A-10]	910 (≈ 685 µg/mL)	24 (≈ 18.1 µg/mL)	1470	460	Bioavailability [1]: 46 % F
